Measurements: patent US20080009418A1, “Selective Inhibitors” (Alchemia LTD., priority 2004, published 2008)

Assays:
Human δ-opioid (DOP) = target: T1, Human δ-opioid (DOP) (Homo sapiens, UniProt P41143); test: Radioligand binding, human δ-opioid (DOP) membranes, FlashPlate, [3H]-Bremazocine; settings: compound at 10 μM; for A1: inhibition of radioligand binding: [3H]-Bremazocine, FlashPlate
T1 construct: purchased Perkin Elmer Biosignal
In short: (§1)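 Cloned human receptor membranes were coated onto FlashPlate wells and incubated with radioligand and compound (added from a 0.5 mM DMSO daughter plate) for 1 hour at room temperature in the dark. Scintillation counting gave percent inhibition, with DMSO defining total and reference ligand defining non-specific binding.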

Human κ-Opioid (KOP) = target: T2, Human κ-Opioid (KOP) (Homo sapiens, UniProt P41145); test: Radioligand binding, human κ-opioid (KOP) membranes, filtration, [3H]-Diprenorphine; settings: compound at 10 μM; for A2: inhibition of radioligand binding: [3H]-Diprenorphine, filtration
T2 construct: purchased Perkin Elmer Biosignal
T2 sequence (P41145 whole entry): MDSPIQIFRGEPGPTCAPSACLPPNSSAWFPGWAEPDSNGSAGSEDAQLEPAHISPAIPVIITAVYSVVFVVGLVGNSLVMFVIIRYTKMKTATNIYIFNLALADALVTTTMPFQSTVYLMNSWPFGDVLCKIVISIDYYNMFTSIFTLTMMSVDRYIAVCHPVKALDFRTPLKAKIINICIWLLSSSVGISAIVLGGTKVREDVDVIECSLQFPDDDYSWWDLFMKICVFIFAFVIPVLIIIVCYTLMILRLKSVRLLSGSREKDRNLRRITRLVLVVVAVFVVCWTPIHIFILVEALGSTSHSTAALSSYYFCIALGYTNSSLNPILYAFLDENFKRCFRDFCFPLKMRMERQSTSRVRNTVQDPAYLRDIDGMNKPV
In short: (§2)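 Filtration binding on cloned human receptor membranes (1 Unit/well), [125I]-Substance P for NK1 and [3H]-Diprenorphine for KOP, 1 h at room temperature. Filters PEI-presoaked, washed with cold 50 mM Tris-HCl pH 7.4, counted by scintillation; percent inhibition calculated, reference ligand defining non-specific binding.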

Human Melanocortin (MC3) = target: T3, Human Melanocortin (MC3) (Homo sapiens, UniProt P41968); test: Radioligand binding, human melanocortin MC3 membranes, FlashPlate, [125I]-NDP-αMSH; settings: compound at 10 μM; for A3: inhibition of radioligand binding: [125I]-NDP-αMSH, FlashPlate
T3 construct: purchased Perkin Elmer Biosignal
T3 sequence (P41968 whole entry): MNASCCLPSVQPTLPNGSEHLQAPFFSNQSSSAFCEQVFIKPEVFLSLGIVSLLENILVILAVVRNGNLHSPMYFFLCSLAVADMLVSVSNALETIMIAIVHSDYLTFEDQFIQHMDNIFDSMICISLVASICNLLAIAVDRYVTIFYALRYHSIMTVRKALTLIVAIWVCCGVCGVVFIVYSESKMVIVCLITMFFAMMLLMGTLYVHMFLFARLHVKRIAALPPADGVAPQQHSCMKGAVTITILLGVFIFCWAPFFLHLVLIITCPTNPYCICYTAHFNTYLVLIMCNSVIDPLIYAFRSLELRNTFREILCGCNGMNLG
In short: as §1

Human Melanocortin (MC4) = target: T4, Human Melanocortin (MC4) (Homo sapiens, UniProt P32245); test: Radioligand binding, human melanocortin MC4 membranes, FlashPlate, [125I]-NDP-αMSH; settings: compound at 10 μM; for A4: inhibition of radioligand binding: [125I]-NDP-αMSH, FlashPlate
T4 construct: purchased Perkin Elmer Biosignal
T4 sequence (P32245 whole entry): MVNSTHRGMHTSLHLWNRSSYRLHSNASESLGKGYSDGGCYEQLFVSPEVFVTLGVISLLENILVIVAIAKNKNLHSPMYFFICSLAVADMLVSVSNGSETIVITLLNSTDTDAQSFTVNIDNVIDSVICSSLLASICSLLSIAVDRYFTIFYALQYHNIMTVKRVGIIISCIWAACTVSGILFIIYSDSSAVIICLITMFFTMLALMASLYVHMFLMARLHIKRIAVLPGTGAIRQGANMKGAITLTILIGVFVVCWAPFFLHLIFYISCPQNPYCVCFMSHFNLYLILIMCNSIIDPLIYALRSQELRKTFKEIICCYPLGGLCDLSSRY
In short: as §1

Human melanocortin (MC5) = target: T5, Human melanocortin (MC5) (Homo sapiens, UniProt P33032); test: Radioligand binding, human melanocortin MC5 membranes, FlashPlate, [125I]-NDP-αMSH; settings: compound at 10 μM; for A5: inhibition of radioligand binding: [125I]-NDP-αMSH, FlashPlate
T5 construct: purchased Perkin Elmer Biosignal
T5 sequence (P33032 whole entry): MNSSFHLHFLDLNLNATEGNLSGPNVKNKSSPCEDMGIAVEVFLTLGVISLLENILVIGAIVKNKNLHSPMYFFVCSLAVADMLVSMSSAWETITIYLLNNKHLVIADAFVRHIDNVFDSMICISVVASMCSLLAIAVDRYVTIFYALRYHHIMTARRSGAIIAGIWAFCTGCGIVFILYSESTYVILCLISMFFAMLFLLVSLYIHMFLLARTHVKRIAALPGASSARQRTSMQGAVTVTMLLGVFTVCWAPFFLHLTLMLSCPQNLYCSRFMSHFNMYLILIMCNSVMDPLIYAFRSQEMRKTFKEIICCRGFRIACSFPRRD
In short: as §1

[1] = target: T6, Human melanin-concentrating hormone (MCH1) (Homo sapiens, UniProt Q99705); test: Radioligand binding, human melanin-concentrating hormone MCH1 membranes, FlashPlate, [125I]-S36057; settings: compound at 10 μM; for A6: inhibition of radioligand binding: [125I]-S36057, FlashPlate
T6 construct: purchased Perkin Elmer Biosignal
T6 sequence (Q99705 whole entry): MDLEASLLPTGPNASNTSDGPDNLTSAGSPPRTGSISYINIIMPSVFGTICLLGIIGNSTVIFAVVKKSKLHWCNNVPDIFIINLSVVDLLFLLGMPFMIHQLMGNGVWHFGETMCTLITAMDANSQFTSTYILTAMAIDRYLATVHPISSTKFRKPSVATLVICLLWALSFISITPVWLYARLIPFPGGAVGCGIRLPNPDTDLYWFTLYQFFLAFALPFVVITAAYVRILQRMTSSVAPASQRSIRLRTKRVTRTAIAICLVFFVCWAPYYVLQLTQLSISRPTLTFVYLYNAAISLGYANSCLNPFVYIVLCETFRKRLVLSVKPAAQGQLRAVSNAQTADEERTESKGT
In short: as §1

Human μ-opioid (MOP) = target: T7, Human μ-opioid (MOP) (Homo sapiens, UniProt P35372); test: Radioligand binding, human μ-opioid (MOP) membranes, FlashPlate, [3H]-Naloxone; settings: compound at 10 μM; for A7: inhibition of radioligand binding: [3H]-Naloxone, FlashPlate
T7 construct: purchased Perkin Elmer Biosignal
T7 sequence (P35372 whole entry): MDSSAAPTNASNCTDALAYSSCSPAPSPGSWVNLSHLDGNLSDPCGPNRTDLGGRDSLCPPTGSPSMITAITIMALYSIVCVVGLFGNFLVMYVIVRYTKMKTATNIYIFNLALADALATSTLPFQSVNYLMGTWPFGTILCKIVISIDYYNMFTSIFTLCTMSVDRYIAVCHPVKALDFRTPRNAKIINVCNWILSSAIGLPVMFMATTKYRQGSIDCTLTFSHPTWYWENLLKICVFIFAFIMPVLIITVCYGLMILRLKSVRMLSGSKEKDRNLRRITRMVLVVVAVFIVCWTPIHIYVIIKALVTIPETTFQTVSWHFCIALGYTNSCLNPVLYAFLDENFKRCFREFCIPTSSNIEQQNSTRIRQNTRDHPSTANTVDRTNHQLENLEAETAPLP
In short: as §1

Human neurokinin (NK1) = target: T8, Human neurokinin (NK1) (Homo sapiens, UniProt P25103); test: Radioligand binding, human neurokinin NK1 membranes, filtration, [125I]-Substance P; settings: compound at 10 μM; for A8: inhibition of radioligand binding: [125I]-Substance P, filtration
T8 construct: purchased Perkin Elmer Biosignal
T8 sequence (P25103 whole entry): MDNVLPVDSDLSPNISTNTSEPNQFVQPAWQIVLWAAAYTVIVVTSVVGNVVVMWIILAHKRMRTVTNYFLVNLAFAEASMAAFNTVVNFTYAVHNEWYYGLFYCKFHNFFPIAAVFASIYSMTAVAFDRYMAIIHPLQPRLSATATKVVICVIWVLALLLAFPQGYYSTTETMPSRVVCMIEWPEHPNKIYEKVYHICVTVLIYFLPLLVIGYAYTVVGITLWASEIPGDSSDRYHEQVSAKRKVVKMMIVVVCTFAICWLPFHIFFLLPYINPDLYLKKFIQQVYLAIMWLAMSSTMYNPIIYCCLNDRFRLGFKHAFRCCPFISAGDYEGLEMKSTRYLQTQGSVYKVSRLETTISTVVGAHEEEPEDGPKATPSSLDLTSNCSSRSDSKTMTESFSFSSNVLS
In short: as §2

[2] = target: T9, Human neuropeptide Y (NPY-Y1) (Homo sapiens, UniProt P25929); test: Radioligand binding, human neuropeptide Y NPY-Y1 membranes, FlashPlate, [125I]-PYY; settings: compound at 10 μM; for A9: inhibition of radioligand binding: [125I]-PYY, FlashPlate
T9 construct: purchased Perkin Elmer Biosignal
T9 sequence (P25929 1-384): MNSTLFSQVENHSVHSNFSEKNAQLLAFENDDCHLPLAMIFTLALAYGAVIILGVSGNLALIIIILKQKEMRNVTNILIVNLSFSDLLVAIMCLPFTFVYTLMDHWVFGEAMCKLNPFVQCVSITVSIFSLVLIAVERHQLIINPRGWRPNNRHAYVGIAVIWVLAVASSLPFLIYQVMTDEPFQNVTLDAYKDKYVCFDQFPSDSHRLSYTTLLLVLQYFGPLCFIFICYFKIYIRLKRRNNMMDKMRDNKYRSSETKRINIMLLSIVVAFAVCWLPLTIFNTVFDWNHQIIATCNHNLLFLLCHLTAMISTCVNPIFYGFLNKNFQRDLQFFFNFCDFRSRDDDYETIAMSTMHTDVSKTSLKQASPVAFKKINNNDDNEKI
In short: as §1

Human opioid (ORL1) = target: T10, Human opioid (ORL1) (Homo sapiens, UniProt P41146); test: Radioligand binding, human opioid ORL1 membranes, FlashPlate, [125I]-Nociceptin; settings: compound at 10 μM; for A10: inhibition of radioligand binding: [125I]-Nociceptin, FlashPlate
T10 construct: purchased Perkin Elmer Biosignal
T10 sequence (P41146 whole entry): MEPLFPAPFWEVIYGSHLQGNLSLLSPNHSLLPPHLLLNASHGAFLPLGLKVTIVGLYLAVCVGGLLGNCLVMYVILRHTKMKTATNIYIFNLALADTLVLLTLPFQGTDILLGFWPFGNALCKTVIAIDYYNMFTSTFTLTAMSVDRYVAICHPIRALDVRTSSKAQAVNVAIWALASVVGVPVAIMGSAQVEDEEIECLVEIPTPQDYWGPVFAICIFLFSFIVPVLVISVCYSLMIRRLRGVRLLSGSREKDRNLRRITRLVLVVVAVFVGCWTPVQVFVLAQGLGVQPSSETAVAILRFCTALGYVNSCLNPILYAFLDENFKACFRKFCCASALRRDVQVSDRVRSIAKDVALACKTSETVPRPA
In short: as §1

Mouse urotensin (mUR2) = target: T11, Mouse urotensin (mUR2) (Mus musculus, UniProt Q8VIH9); test: Radioligand binding, mouse urotensin mUR2 membranes, FlashPlate, [125I]-Urotensin II; settings: compound at 10 μM; for A11: inhibition of radioligand binding: [125I]-Urotensin II, FlashPlate
T11 construct: purchased Perkin Elmer Biosignal
T11 sequence (Q8VIH9 1-385): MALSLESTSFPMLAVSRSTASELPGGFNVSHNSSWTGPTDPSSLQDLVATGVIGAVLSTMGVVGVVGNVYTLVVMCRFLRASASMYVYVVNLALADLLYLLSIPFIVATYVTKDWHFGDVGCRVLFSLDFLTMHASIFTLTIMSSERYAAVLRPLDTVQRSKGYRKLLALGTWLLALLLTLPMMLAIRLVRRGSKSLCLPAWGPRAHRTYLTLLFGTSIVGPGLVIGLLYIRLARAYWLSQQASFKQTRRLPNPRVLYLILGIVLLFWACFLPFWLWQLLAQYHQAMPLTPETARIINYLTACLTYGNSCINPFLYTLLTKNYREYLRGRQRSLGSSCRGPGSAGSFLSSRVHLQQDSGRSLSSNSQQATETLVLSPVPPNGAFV
In short: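 Cloned mouse urotensin (mUR2) receptor membranes from Perkin Elmer Biosignal were immobilized in FlashPlate microplates using a proprietary coating. Each well got 19.5 μl buffer, then 0.5 μl of DMSO, reference ligand, or compound. Adding 5 μl of [125I]-Urotensin II, diluted to 5× final concentration in binding buffer, started binding. Plates were sealed with TopSeal-A and incubated 1 hour at room temperature in the dark. Wells were counted for 30 seconds each on a TopCount after a 60-second delay, and percentage inhibition was calculated.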

T1 sequence (P41143 whole entry): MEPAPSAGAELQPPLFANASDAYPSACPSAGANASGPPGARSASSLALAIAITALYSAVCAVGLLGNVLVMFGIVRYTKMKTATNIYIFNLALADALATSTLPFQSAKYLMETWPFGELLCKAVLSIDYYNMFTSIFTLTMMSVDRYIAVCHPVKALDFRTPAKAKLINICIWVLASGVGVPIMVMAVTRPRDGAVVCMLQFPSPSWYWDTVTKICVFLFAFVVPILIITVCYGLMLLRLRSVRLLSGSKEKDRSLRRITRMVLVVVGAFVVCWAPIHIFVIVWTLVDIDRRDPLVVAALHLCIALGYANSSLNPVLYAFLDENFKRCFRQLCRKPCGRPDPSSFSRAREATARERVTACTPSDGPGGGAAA

| Compound | A1: inhibition of radioligand binding (Human δ-opioid (DOP)) | A2: inhibition of radioligand binding (Human κ-Opioid (KOP)) | A3: inhibition of radioligand binding (Human Melanocortin (MC3)) | A4: inhibition of radioligand binding (Human Melanocortin (MC4)) | A5: inhibition of radioligand binding (Human melanocortin (MC5)) | A6: inhibition of radioligand binding [1] | A7: inhibition of radioligand binding (Human μ-opioid (MOP)) | A8: inhibition of radioligand binding (Human neurokinin (NK1)) | A9: inhibition of radioligand binding [2] | A10: inhibition of radioligand binding (Human opioid (ORL1)) | A11: inhibition of radioligand binding (Mouse urotensin (mUR2)) | further results |
| --- | --- | --- | --- | --- | --- | --- | --- | --- | --- | --- | --- | --- |
| CO[C@H]1[C@H](O)[C@@H](COCc2ccccc2)OC(OCc2ccc3ccccc3c2)[C@@H]1NC(=O)CCCN (stereo partly drawn) [compound 76] | – | – | – | – | – | – | – | – | – | – | – | A1 radioligand binding inhibition (Human δ-opioid (DOP); human δ-opioid (DOP) membranes): − (“−” indicates less than 50% inhibition at 10 μM); A2 radioligand binding inhibition (Human κ-Opioid (KOP); human κ-opioid (KOP) membranes): − (“−” indicates less than 50% inhibition at 10 μM); A3 radioligand binding inhibition (Human Melanocortin (MC3); human melanocortin MC3 membranes): − (“−” indicates less than 50% inhibition at 10 μM); A4 radioligand binding inhibition (Human Melanocortin (MC4); human melanocortin MC4 membranes): − (“−” indicates less than 50% inhibition at 10 μM); A5 radioligand binding inhibition (Human melanocortin (MC5); human melanocortin MC5 membranes): − (“−” indicates less than 50% inhibition at 10 μM); A6 radioligand binding inhibition ([1]; human MCH1 membranes): − (“−” indicates less than 50% inhibition at 10 μM); A7 radioligand binding inhibition (Human μ-opioid (MOP); human μ-opioid (MOP) membranes): − (“−” indicates less than 50% inhibition at 10 μM); A8 radioligand binding inhibition (Human neurokinin (NK1); human neurokinin NK1 membranes): + (“+” indicates greater than 50% inhibition at 10 μM); A9 radioligand binding inhibition ([2]; human NPY-Y1 membranes): − (“−” indicates less than 50% inhibition at 10 μM); A10 radioligand binding inhibition (Human opioid (ORL1); human ORL1 membranes): − (“−” indicates less than 50% inhibition at 10 μM); A11 radioligand binding inhibition (Mouse urotensin (mUR2); mouse urotensin mUR2 membranes): − (“−” indicates less than 50% inhibition at 10 μM) |
| COCC1OC(OCc2ccc3ccccc3c2)C(NC(=O)CCNC(=N)N)C(OCc2ccccc2)C1O (stereo not drawn) [compound 232] | − (“−” indicates less than 50% inhibition at 10 μM) | − (“−” indicates less than 50% inhibition at 10 μM) | − (“−” indicates less than 50% inhibition at 10 μM) | − (“−” indicates less than 50% inhibition at 10 μM) | − (“−” indicates less than 50% inhibition at 10 μM) | − (“−” indicates less than 50% inhibition at 10 μM) | − (“−” indicates less than 50% inhibition at 10 μM) | + (“+” indicates greater than 50% inhibition at 10 μM) | − (“−” indicates less than 50% inhibition at 10 μM) | − (“−” indicates less than 50% inhibition at 10 μM) | − (“−” indicates less than 50% inhibition at 10 μM) | – |
| CSC1OC(COCc2ccc(Cl)cc2)C(O)C(OCc2ccc(Cl)cc2)C1NC(=O)CNC(=N)N (stereo not drawn) [compound 270] | − (“−” indicates less than 50% inhibition at 10 μM) | − (“−” indicates less than 50% inhibition at 10 μM) | + (“+” indicates greater than 50% inhibition at 10 μM) | + (“+” indicates greater than 50% inhibition at 10 μM) | + (“+” indicates greater than 50% inhibition at 10 μM) | − (“−” indicates less than 50% inhibition at 10 μM) | − (“−” indicates less than 50% inhibition at 10 μM) | + (“+” indicates greater than 50% inhibition at 10 μM) | − (“−” indicates less than 50% inhibition at 10 μM) | − (“−” indicates less than 50% inhibition at 10 μM) | − (“−” indicates less than 50% inhibition at 10 μM) | – |
